# According to patent US5032588A, “Thiazole lipoxygenase-inhibiting compounds derived from non-steroidal antiinflammatory carboxylic acids” (Abbott Laboratories, priority 1989, dated 1991):
# Biological target: T1, 5-lipoxygenase (Rattus norvegicus, UniProt P12527)
# T1 construct: 20,000x g supernatant from homogenized RBL-1 cells; endogenous in cells; host or cells: RBL-1 cells (20,000 x g supernatant of homogenate)
# T1 sequence (P12527 1-673): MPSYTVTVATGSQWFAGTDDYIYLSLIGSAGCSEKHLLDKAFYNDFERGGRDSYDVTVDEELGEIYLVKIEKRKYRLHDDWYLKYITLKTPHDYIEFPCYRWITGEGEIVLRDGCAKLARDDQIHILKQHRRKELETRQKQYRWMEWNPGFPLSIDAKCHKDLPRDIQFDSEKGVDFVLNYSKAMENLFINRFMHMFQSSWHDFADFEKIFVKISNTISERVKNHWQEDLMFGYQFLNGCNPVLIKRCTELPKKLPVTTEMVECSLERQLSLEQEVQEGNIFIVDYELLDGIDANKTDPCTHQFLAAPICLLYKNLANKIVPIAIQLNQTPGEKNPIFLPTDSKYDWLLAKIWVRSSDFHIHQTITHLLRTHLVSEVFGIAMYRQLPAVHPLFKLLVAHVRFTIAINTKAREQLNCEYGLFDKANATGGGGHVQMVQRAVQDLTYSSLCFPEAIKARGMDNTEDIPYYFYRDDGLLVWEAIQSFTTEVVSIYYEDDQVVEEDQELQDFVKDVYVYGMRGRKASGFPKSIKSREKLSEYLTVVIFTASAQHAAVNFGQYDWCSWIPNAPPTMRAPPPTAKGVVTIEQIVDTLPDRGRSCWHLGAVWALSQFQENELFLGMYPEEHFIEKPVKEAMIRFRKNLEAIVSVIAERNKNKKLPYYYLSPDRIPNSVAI
# Experiment: Inhibition of 5-lipoxygenase activity (20,000x g supernatant from homogenized RBL-1 cells)
# Assay type: biochemical
# Conditions: linear regression of percentage inhibition versus log inhibitor concentration, read-out: IC50 (concentration of compound producing 50% enzyme inhibition)
# Description: Inhibition of 5-lipoxygenase activity was determined using the 20,000x g supernatant from homogenized RBL-1 cells in a similar manner as that described by Dyer and coworkers (Dyer, R. D.; Haviv, F.; Hanel, A. M.; Bornemier, D. A.; Carter, G. W. Fed. Proc., Fed. Am. Soc. Exp. Biol., 43:1462A, (1984).) IC50 values (concentration of compound producing 50% enzyme inhibition) were calculated by linear regression analysis of percentage inhibition versus log inhibitor concentration plots.
row,IC50,SMILES
1,710 nM,"CC(C)Cc1ccc(C(C)c2nc(O)c(-c3ccccc3)s2)cc1 (centres unmarked) [Example 2, 2-[1-(4-isobutylphenyl)ethyl]-5-phenyl-4-hydroxy-thiazole]"
2,60 nM,"CCC(c1ccc(CC(C)C)cc1)c1nc(O)c(-c2ccccc2)s1 (centres unmarked) [Example 4, 2-[1-(4-isobutylphenyl)propyl]-5-phenyl-4-hydroxythiazole]"
3,420 nM,"COc1ccc2cc(C(C)c3nc(O)c(-c4ccccc4)s3)ccc2c1 (centres unmarked) [Example 1, 2-[1-(6-methoxy-2-naphthyl)ethyl]-5-phenyl-4-hydroxythiazole]"
4,1100 nM,"CC(C)Cc1ccc(Cc2nc(O)c(-c3ccccc3)s2)cc1 [Example 3, 2-[(4-isobutylphenyl)methyl]-5-phenyl-4-hydroxythiazole]"
5,900 nM,"COc1ccc2cc(C(C)c3sc(-c4ccccc4)nc3O)ccc2c1 (centres unmarked) [Example 5, 5-[1-(6-methoxy-2-naphthyl)ethyl]-2-phenyl-4-hydroxythiazole]"
